The results in this text go back to PMC5078989, “Targeted inhibition of the COP9 signalosome for treatment of cancer” (Nature Communications, 2016).

The term IC50 denotes the concentration at which inhibition is half-maximal.

In one series the target is T1, RPN11 (26S proteasome) (Homo sapiens, UniProt O00487).
T1 construct: purchased LifeSensors PS026
The series can be described thus: Selectivity assay RPN11 (26S proteasome). The series is classed as biochemical. The note with it: JAMM domain protease. The protocol:
All biochemical assays were performed at room temperature in 384-well plates in a total volume of 25.25 μl per well. Test compounds were dissolved in 90% (v/v) DMSO/water. For the assays, 250 nl of compound solution was added per well, followed by addition of 12.5 μl protease solution. After 70 min of pre-incubation at room temperature, the reactions were started by addition of 12.5 μl substrate solution and followed either by measuring fluorescence intensity (rhodamine 110-based substrates) or by fluorescence lifetime (PT14-based substrates). The effect of compound on enzymatic activity was obtained from the linear part of the progress curves and determined after 1 h (t=60 min). The final compound concentrations ranged from 100 μM to 1 nM.
RPN11 (26S proteasome). Enzyme purchased from LifeSensors (catalogue number PS026); substrate: K48-linked tetra-ubiquitin chain coupled to a rhodamine 110 fluorophore purchased from LifeSensors (catalogue number NO13–158.01); enzyme concentration: 0.75 nM; substrate concentration: 100 nM; assay buffer: 20 mM Hepes at pH 7.4, 150 mM NaCl, 0.02% Tween-20, 0.5 mM TCEP, 0.05 mM MgCl2, 1 mM ATP and 2 μM ubiquitin aldehyde.

For a further series, the system named is SU-DHL-1 xenografts. The series can be described thus: SU-DHL-1 xenograft experiment in SCID-bg mice. The series is classed as in vivo. The note with it: 14 days; for T/C value (tumour volume of treated versus control): last day of treatment. The protocol:
For the in vivo study, subcutaneous SU-DHL-1 xenografts were grown in SCID-bg mice and CSN5i-3 was administered orally at doses of 50 mg kg^−1 BID and 100 mg kg^−1 QD over a period of 14 days. […] Tumours were excised at the end of the study and the effect of compound treatment assessed on the pharmacodynamics markers, neddylated Cul1 and Skp2. […] All animal experiments were approved by the Kantonales Veterinäramt Basel-Stadt and were conducted in accordance with the Eidgenössisches Tierschutzgesetz and the Eidgenössische Tierschutzverordnung. SU-DHL-1 cells (1 × 10^7; DSMZ) were implanted subcutaneously into SCID-bg female 7–9-week-old mice (Taconic) and developing tumours were propagated once before subcutaneous transplantation for efficacy studies. Treatment was initiated when tumours reached 150–200 mm^3 volume. […] Randomization was conducted by using an internal computer software (Indigo). CSN5i-3 was formulated in 100 mM citrate buffer pH 3, PEG300, Kolliphor HS15, 1 N HCl (56:30:10:4%w/w). Tumour response is reported as percentage change in tumour volume at the last day of treatment relative to start of treatment. […] At day 10 of treatment blood, samples were taken and concentrations of CSN5i-3 were determined at indicated time points post dose using ultra-high-pressure liquid chromatography/tandem MS. At the end of treatment, tumours were excised and snap frozen in liquid nitrogen. Frozen tumours were pulverized using CryoPrep (Covaris Inc.) and protein lysates were prepared from tumour powder for immunoblot analysis.

For the next series, the system named is SU-DHL-1 cells. The series can be described thus: Immunoblotting for PARP and caspase 3 in SU-DHL-1 cells. The series is classed as cell-based, human. The note with it: SU-DHL-1, 1 μM, 24 h or 48 h. The protocol: Cells were maintained in a humidified incubator at 37 °C and 5% CO2. […] All cells were negatively tested for mycoplasma contamination either by the vendor or in house. […] If not stated otherwise, cells were harvested after incubation for 16 h and subjected to SDS-PAGE and western blotting. The RNA interference experiment was performed with CSN5 stealth siRNA (#HSS116986) and stealth negative control siRNA (#12935-400) (Invitrogen), which were transfected at 10 nM into HCT116 cells using […] (Qiagen) according to the manufacturer's protocols. Seventy-two hours after transfection, cells were harvested and subjected to SDS-PAGE and western blotting (see Supplementary Fig. 7 for all western blottings performed). […] Cells from longer compound incubations were also lysed in RIPA buffer, which allows the protein concentration to be determined by BCA Protein Assay Kit (Pierce). Proteins were separated by SDS-PAGE using 4-20% Tris-Glycine Gels (Invitrogen) and subsequently transferred to polyvinylidene difluoride membranes using a Trans-Blot Turbo System (BioRad). […] Horseradish peroxidase-conjugated secondary antibodies (1:3,000) were purchased from Promega AG and bound antibody was detected by enhanced chemiluminescence (Pierce). page 5: Supplementary Figure 5 a b 0 Cul1-Nedd8 Cul1-Nedd8 Cul1 -20 Cul1 Fbxo7 -40 Fbxo7 -60 Actin -80 Actin CDK6 -100 CDK6 […] […]
In general terms: In western blotting, separated proteins are transferred to a membrane and probed.

The mark [1] stands for this setting: 50 mg kg^−1 BID and 100 mg kg^−1 QD oral.

Turning to `CC(C)n1nc(C(F)F)cc1C(=O)Nc1ccc([C@H]2[C@@H](O)CCCc3cncn32)c(-c2ccccc2)c1` [CSN5i-3, 3-(Difluoromethyl)-N-(6-((5S,6S)-6-hydroxy-6,7,8,9-tetrahydro-5H-imidazo[1,5-a]azepin-5-yl)-[1,1′-biphenyl]-3-yl)-1-isopropyl-1H-pyrazole-5-carboxamide], it took 53 ± 26 µM to reach half-maximal inhibition at RPN11 (26S proteasome) (IC50). In the series with SU-DHL-1 xenografts (setting [1]), the “tolerability based on body weight” value is recorded as “well tolerated” and the tumour growth outcome is given as “Tumour stasis”. In the series with SU-DHL-1 xenografts (50 mg kg^−1 BID oral), the “T/C value (tumour volume of treated versus control)” value is 22%. Further, the “T/C value (tumour volume of treated versus control)” value in the series on SU-DHL-1 xenografts (100 mg kg^−1 QD oral) is reported as 25%. In the series on SU-DHL-1 cells, the “apoptosis markers (cleaved PARP, cleaved caspase 3)” value is “triggered the formation of cleaved PARP and cleaved caspase 3”.
